Laboratory results taken from BindingDB's records for doi:10.1016/j.bmcl.2005.02.039 (National Institute of Pharmaceutical Education and Research …, 2005).
pIC50: −log10 of the molar value.

Test: Anti-oxidant activity in DPPH radicak scavenging assay; n=3-4

SMILES	pIC50
Oc1ccc(/C=C/c2cc(/C=C/c3ccc(O)cc3)[nH]n2)cc1 [4-((E)-2-{3-[(E)-2-(4-hydroxyphenyl)vinyl]-1H-pyrazol-5-yl}vinyl)phenol]	4.49
COc1cc(C=Cc2cc(C=Cc3ccc(O)cc3)n[nH]2)ccc1O [4-((E)-2-{5-[(E)-2-(4-Hydroxy-phenyl)-vinyl]-1H-pyrazol-3-yl}-vinyl)-2-methoxy-phenol]	4.81
COc1cc(/C=C/c2cc(/C=C/c3ccc(O)cc3)on2)ccc1O [4-((E)-2-{5-[(E)-2-(4-Hydroxy-phenyl)-vinyl]-isoxazol-3-yl}-vinyl)-2-methoxy-phenol]	4.72
